We go through twelve compounds from US9334267B2, “RAF inhibitor compounds” (Deciphera Pharmaceuticals, LLC, priority 2012, dated 2016).

One assay has as its target T1, human wild type C-Raf (Homo sapiens, UniProt P04049).
T1 construct: made in house
In words: Enzymatic assay of C-Raf kinase activity (Raf/MEK1 ATPase, coupled PK/LDH, A340). The assay is classed as biochemical. The settings on record: read-out: Enzyme IC50, nM C-Raf. How it is done: Test compounds are evaluated for their inhibitory activities against one or more of human wild type B-Raf, human wild type C-Raf, human B-Raf V600E, human B-Raf V600E+T529I or human B-Raf V600E+G468A. T529I is a threonine to isoleucine B-Raf gatekeeper mutation and G468A is a B-Raf secondary mutation at G1403C in exon 11. The enzymatic assays of B-Raf, C-Raf and B-Raf mutations evaluate a property of Raf and MEK1 complex, which in the presence of ATP, catalyzes an enhanced ATP hydrolysis (Rominger, et al, Arch. Biochem. Biophys. 2007, 464: 130-137; US Patent Publication No. 2006/0211073). The ADP formed is monitored by the well-known coupled PK/LDH (pyruvate kinase/lactate dehydrogenase) system in the form of NADH oxidation, which can be monitored and detected spectrophotometrically by absorbance at 340 nm (A340; for principal of the method see Schindler et al, Science, 2000, 289: 1938-1942). Raf activated MEK1 ATPase activity is a property shared by all forms of Raf proteins.
Test compounds are evaluated for their inhibitory activities against one or more of wild type B-Raf, wild type C-Raf, B-Raf V600E, B-Raf V600E+T529I and B-Raf V600E+G468A. T529I is a B-Raf gatekeeper mutation and G468A is a B-Raf secondary mutation. The enzymatic assays of B-Raf, C-Raf and B-Raf mutations evaluate a property of Raf and MEK1 complex, which in the presence of ATP, catalyzes an enhanced ATP hydrolysis (Rominger, et al, Arch. Biochem. Biophys. 2007, 464: 130-137). The ADP formed is monitored by the well-known coupled PK/LDH (pyruvate kinase/lactate dehydrogenase) system in the form of NADH oxidation, which can be monitored and detected by absorbance at 340 nm (A340; for principal of the method see Schindler et al, Science, 2000, 289: 1938-1942). Raf activated MEK1 ATPase activity is a property shared by all forms of Raf proteins. In the B-Raf wild type enzymatic assay, the reaction mixture contains 1.2 nM B-Raf, 30 nM MEK1, 1000 uM ATP, 3.5 units (per 100 ul) of PK, 5 units (per 100 ul) of LDH, 1 mM phosphoenol pyruvate (PEP), and 280 uM of NADH. In the C-Raf assay, the reaction mixture contains 0.6 nM C-Raf, 26 nM MEK1, 2000 uM ATP, and the same amount of PK, LDH, PEP and NADH as above. In the B-Raf V600E assay, the reaction mixture contains […] B-Raf V600E, 26 nM MEK1, 200 uM ATP and the same amount of PK, LDH, PEP and NADH as above. In the B-RafV600E+T529I assay, the reaction mixture contains 6.2 nM B-Raf V600E+T529I, 30 nM MEK1, 200 uM ATP and the same amount of PK, LDH, PEP and NADH as above. In the B-Raf V600E+G468A assay, the reaction mixture contains 3.5 nM B-Raf, 30 nM MEK1, 200 uM ATP and the same amount of PK, LDH, PEP and NADH as above. All assays are started by mixing the above mixture with test compound and monitoring at A340 continuously for approximately 5 hr. […] In the aforementioned assays, the enzyme constructs can be screened prior to or after cleavage of the N-terminal purification tag.

A further assay relates to HT-29 cells. Nature of the assay: HT-29 cell proliferation assay (resazurin). Format: cell-based. The settings on record: Homo sapiens, V600E mutation, read-out: Cell Proliferation Inhibition IC50, nM HT-29. How it is done:
(§1) HT-29 cells (catalog #HTB-38) are obtained from the American Type Culture Collection (ATCC, Manassas, Va.). Briefly, cells are grown in McCoy's 5A supplemented with 10% characterized fetal bovine serum (Invitrogen, Carlsbad, Calif.), and 1% Penicillin/Streptomycin/L-Glutamine at 37 degrees Celsius, 5% CO2, and 95% humidity. Cells are allowed to expand until reaching 75-90% confluency at which point they are subcultured or harvested for assay use. A serial dilution of test compound is dispensed into a 384-well black clear bottom plate in triplicate. One thousand two-hundred fifty cells are added per well in 50 μL complete growth medium in the 384-well plate. Plates are incubated for 67 hours at 37 degrees Celsius, 5% CO2, and 95% humidity. At the end of the incubation period, 10 μL of a 440 μM solution of resazurin (Sigma, St. Louis, Mo.) in PBS is added to each well of the plate and plates are incubated for an additional 5 hours at 37 degrees Celsius, 5% CO2, and 95% humidity. Plates are read on a Synergy2 reader (Biotek, Winooski, Vt.) using an excitation of 540 nm and an emission of 600 nm. Data is analyzed using Prism software (Graphpad, San Diego, Calif.) to calculate IC50 values.
(§2) The A375, HT-29, and Colo-205 cells (ATCC) harbor a V600E mutation.
A general note: The colour change of resazurin is a common sign of viable cells or microbes.

The test system of another assay is Colo205 cells. In words: Colo-205 cell proliferation assay (resazurin). The settings on record: Homo sapiens; Colo-205 cells, V600E mutation; read-out: Cell Proliferation Inhibition IC50, nM Colo-205. Format: cell-based. How it is done:
as §1, with “Colo205” for “HT-29”, “#HB-8307)” for “#HTB-38)”, “RPMI 1640” for “McCoy's 5A”, “Calif.), 1 mM sodium pyruvate,” for “Calif.),”, “30-60%” for “75-90%”
as §2

For a further assay, the system named is HCT-116 cells. In words: HCT-116 cell proliferation assay (resazurin). The assay is classed as cell-based. The settings on record: Homo sapiens, K-Ras mutation B-Raf wild type, read-out: Cell Proliferation Inhibition IC50, nM HCT-116.
In the next assay the test system is Sk-Mel-2 cells. In words: SK-Mel-2 cell proliferation assay (resazurin). Format: cell-based. The settings on record: Homo sapiens, N-Ras mutation B-Raf wild type, read-out: Cell Proliferation Inhibition IC50, nM SK-Mel-2.

A value given as a limit tells only on which side of the number the result lay.

T1 sequence (P04049 whole entry): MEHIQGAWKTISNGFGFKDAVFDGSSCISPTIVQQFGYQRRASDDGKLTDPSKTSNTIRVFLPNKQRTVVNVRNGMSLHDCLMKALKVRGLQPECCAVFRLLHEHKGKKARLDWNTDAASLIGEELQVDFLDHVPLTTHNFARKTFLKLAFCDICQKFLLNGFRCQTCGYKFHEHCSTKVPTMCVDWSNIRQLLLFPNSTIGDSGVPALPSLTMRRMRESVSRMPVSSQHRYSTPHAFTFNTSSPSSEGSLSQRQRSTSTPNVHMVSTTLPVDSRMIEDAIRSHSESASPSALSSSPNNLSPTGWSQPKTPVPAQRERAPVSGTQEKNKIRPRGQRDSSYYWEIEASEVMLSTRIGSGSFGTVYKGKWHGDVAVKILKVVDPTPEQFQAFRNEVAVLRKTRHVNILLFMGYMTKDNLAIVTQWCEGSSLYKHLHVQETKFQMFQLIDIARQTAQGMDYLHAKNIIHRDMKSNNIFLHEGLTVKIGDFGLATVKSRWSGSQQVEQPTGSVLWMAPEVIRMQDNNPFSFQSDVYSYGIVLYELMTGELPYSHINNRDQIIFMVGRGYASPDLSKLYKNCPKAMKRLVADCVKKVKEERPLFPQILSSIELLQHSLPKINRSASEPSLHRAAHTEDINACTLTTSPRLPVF

Take `CNc1ncc2cc(-c3cc(NC(=O)NCCC(C)(C)C)c(F)cc3F)c(C)nc2n1` [Example 1, 1-(2,4-Difluoro-5-(7-methyl-2-(methylamino)pyrido[2,3-d]pyrimidin-6-yl)phenyl)-3-(3,3-dimethylbutyl)urea]: the IC50 on human wild type C-Raf is less than 150 nM; in the assay on HT-29 cells it was less than 100 nM; in the assay on Colo205 cells it was less than 100 nM; in the assay with HCT-116 cells, 100 to 1000 nM; in the assay on Sk-Mel-2 cells it was 100 to 1000 nM.

`CNc1ncc2cc(-c3ccc(F)c(NC(=O)NCCC(C)(C)C)c3)c(C)nc2n1` [Example 2, 1-(3,3-Dimethylbutyl)-3-(2-fluoro-5-(7-methyl-2-(methylamino)pyrido[2,3-d]pyrimidin-6-yl)phenyl)urea]: the IC50 at human wild type C-Raf is less than 150 nM; in the assay on HT-29 cells it was less than 100 nM; with Colo205 cells, less than 100 nM; in the assay on HCT-116 cells, 100 to 1000 nM; in the assay with Sk-Mel-2 cells, less than 100 nM.

As to `CNc1ncc2cc(-c3cc(NC(=O)NCCC(C)(C)C#N)c(F)cc3C)c(C)nc2n1` [Example 3, 1-(3-Cyano-3-methylbutyl)-3-(2-fluoro-4-methyl-5-(7-methyl-2-(methylamino)pyrido[2,3-d]pyrimidin-6-yl)phenyl)urea], the IC50 at human wild type C-Raf was less than 150 nM; with HT-29 cells it was less than 100 nM; in the assay on Colo205 cells it was less than 100 nM; in the assay on HCT-116 cells, 100 to 1000 nM; in the assay on Sk-Mel-2 cells, 100 to 1000 nM.

`CNc1ncc2cc(-c3cc(NC(=O)NCCC(C)(C)F)c(F)cc3C)c(C)nc2n1` [Example 4, 1-(3-Fluoro-3-methylbutyl)-3-(2-fluoro-4-methyl-5-(7-methyl-2-(methylamino)pyrido[2,3-d]pyrimidin-6-yl)phenyl)urea]: the IC50 on human wild type C-Raf was less than 150 nM; in the assay with HT-29 cells it was less than 100 nM; with Colo205 cells it was 100 to 1000 nM; in the assay with HCT-116 cells, 100 to 1000 nM; in the assay on Sk-Mel-2 cells, 100 to 1000 nM.

For the compound `COCCNc1ncc2cc(-c3cc(NC(=O)NCCC(C)(C)C)c(F)cc3C)c(C)nc2n1` [Example 5, 1-(3,3-Dimethylbutyl)-3-(2-fluoro-5-(2-((2-methoxyethyl)amino)-7-methylpyrido[2,3-d]pyrimidin-6-yl)-4-methylphenyl)urea], the IC50 was less than 150 nM on human wild type C-Raf; less than 100 nM in the assay with HT-29 cells; less than 100 nM with Colo205 cells; 100 to 1000 nM in the assay with HCT-116 cells; 100 to 1000 nM with Sk-Mel-2 cells.

Turning to `CNc1ncc2cc(-c3cc(NC(=O)NC4CC(C)(C)C4)c(F)cc3C)c(C)nc2n1` [Example 6, 1-(3,3-Dimethylcyclobutyl)-3-(2-fluoro-4-methyl-5-(7-methyl-2-(methylamino)pyrido[2,3-d]pyrimidin-6-yl)phenyl)urea], the IC50 on human wild type C-Raf was less than 150 nM; in the assay on HT-29 cells it was less than 100 nM; with Colo205 cells, less than 100 nM; with HCT-116 cells, 100 to 1000 nM; in the assay with Sk-Mel-2 cells it was less than 100 nM.

Take `CNc1ncc2cc(-c3cc(NC(=O)NC4CC(C)(C)C4)c(F)cc3F)c(C)nc2n1` [Example 7, 1-(2,4-Difluoro-5-(7-methyl-2-(methylamino)pyrido[2,3-d]pyrimidin-6-yl)phenyl)-3-(3,3-dimethylcyclobutyl)urea]: the IC50 at human wild type C-Raf is less than 150 nM; in the assay with HT-29 cells it was less than 100 nM; in the assay on Colo205 cells, less than 100 nM; with HCT-116 cells it was 100 to 1000 nM; in the assay with Sk-Mel-2 cells, less than 100 nM.

In the case of `CNc1ncc2cc(-c3cc(NC(=O)NCC(O)C(C)(C)C)c(F)cc3C)cnc2n1` (stereo not drawn) [Example 8, 1-[2-Fluoro-4-methyl-5-(2-methylaminopyrido[2,3-d]pyrimidin-6-yl)phenyl]-3-(2-hydroxy-3,3-dimethyl-butyl)urea], the IC50 on human wild type C-Raf was less than 150 nM; with HT-29 cells, 100 to 1000 nM; with Colo205 cells it was less than 100 nM; with HCT-116 cells, 1000 to 10000 nM; in the assay with Sk-Mel-2 cells, 100 to 1000 nM.

Turning to `CNc1ncc2cc(-c3cc(NC(=O)NCC4CC4(C)C)c(F)cc3C)cnc2n1` (stereo not drawn) [Example 9], the IC50 at human wild type C-Raf is less than 150 nM; with HT-29 cells, 100 to 1000 nM; with Colo205 cells, 100 to 1000 nM; with HCT-116 cells, 1000 to 10000 nM; in the assay with Sk-Mel-2 cells it was 100 to 1000 nM.

`Cc1cc(F)c(NC(=O)NCC(O)C(C)(C)C)cc1-c1cc2cnc(N)nc2nc1C` (stereo not drawn) [Example 10]: the IC50 at human wild type C-Raf is less than 150 nM; in the assay with HT-29 cells, 100 to 1000 nM; in the assay on Colo205 cells it was 100 to 1000 nM; in the assay on HCT-116 cells, 1000 to 10000 nM; with Sk-Mel-2 cells it was 1000 to 10000 nM.

`CNc1ncc2cc(-c3cc(NC(=O)NCC(O)C(C)(C)C)c(F)cc3F)c(C)nc2n1` (stereo not drawn) [Example 11, 1-[2,4-Difluoro-5-(7-methyl-2-methylamino-pyrido[2,3-d]pyrimidin-6-yl)phenyl]-3-(2-hydroxy-3,3-dimethyl-butyl)urea]: the IC50 at human wild type C-Raf was less than 150 nM; with HT-29 cells, 100 to 1000 nM; in the assay on Colo205 cells it was 100 to 1000 nM; with HCT-116 cells it was 1000 to 10000 nM; in the assay with Sk-Mel-2 cells, 100 to 1000 nM.

Turning to `CNc1ncc2cc(-c3cc(NC(=O)NCCC(C)(C)C#N)c(F)cc3F)c(C)nc2n1` [Example 12, 1-(3-Cyano-3-methylbutyl)-3-(2,4-difluoro-5-(7-methyl-2-(methylamino)pyrido[2,3-d]pyrimidin-6-yl)phenyl)urea], the IC50 at human wild type C-Raf is less than 150 nM; in the assay with HT-29 cells it was 100 to 1000 nM; in the assay on Colo205 cells, 100 to 1000 nM; with HCT-116 cells, 1000 to 10000 nM; in the assay with Sk-Mel-2 cells, 100 to 1000 nM.
